Experimental data from article PMC11310079, “Commensal production of a broad-spectrum and short-lived antimicrobial peptide polyene eliminates nasal Staphylococcus aureus” (Nature Microbiology, 2023).

Key:
[1] = cited from earlier work
Text: To our knowledge, the combination of peptide–polyene–tetramic acid moieties is unique to epifadin. […] In contrast to the ionophore act ...

[2] = system: S. aureus USA300 LAC; test: Stability analysis of epifadin (bioactivity by agar diffusion after incubation); format: physicochemical, Staphylococcus aureus; conditions: lugdunin 70 µg/ml in TSB, 37 °C, pH 7, light, r4-r10 = 0-6 h
Description: Fig. 2 High instability of epifadin under in vivo-like conditions. S. epidermidis IVK83 culture supernatants containing epifadin were precipitated with HCl, freeze-dried and extracted with DMSO. This extract was diluted in TSB, incubated for the indicated time periods with constant shaking under the respective conditions and subsequently tested for activity towards S. aureus USA300 LAC. a, Stability of epifadin compared with other antibacterial agents under standard laboratory conditions (37 °C, pH 7, laboratory light exposure). b, In vivo-like conditions with laboratory light exposure at pH 7 (nasal condition) or pH 5.5 (skin condition) and reduced temperatures; incubation of epifadin under exclusion from light enabled further purification and activity determination. Conditions at pH 7, 37 °C and 0 h were used as reference for 100% stability. Data shown represent the mean ± s.d. of three independent experiments. Source data
The effect of different incubation conditions on the bioactivity of epifadin was analysed by agar diffusion assays on lawns of the sensitive indicator strain S. aureus USA300 LAC. To this end, liquid TSA was inoculated with an overnight culture of USA300 at an OD600 of 0.00125. After solidification of the agar, a cork borer was used to punch wells into the agar with 5 mm diameter. TSB media with 50 mM sodium citrate (pH 5 and 6) or 50 mM tris(hydroxymethyl)aminomethane (pH 8 and 9) were prepared. Epifadin-containing precipitate was dissolved in DMSO (12 mg ml^−1), and insoluble particles were removed by centrifugation. The supernatant was added to the prepared TSB media at a final concentration of 750 µg precipitate per millilitre (37.5 µg in 50 µl). Media were incubated for 6 h at 21 °C, 30 °C or 37 °C with or without laboratory light exposure and constant shaking at 500 rpm in a thermomixer (Eppendorf). As controls, 70 µg ml^−1 (3.5 µg in 50 µl) lugdunin, 24 µg ml^−1 (1.2 µg in 50 µl) gallidermin and 100 µg ml^−1 (5 µg in 50 µl) nisin were used. At different timepoints, 50 µl of each sample was pipetted into the wells of the agar plates. After incubation at 37 °C overnight, zones of inhibition were analysed with ImageJ software (version 1.8.0_112).

[3] = system: S. aureus USA300LAC; test: Determination of the IC (miniaturized agar diffusion assay); format: cell-based, Staphylococcus aureus; conditions: agar diffusion on inoculated TSA, 35 µl in 4-mm wells, 24 h 37 °C dark; IC from inhibited agar volume at lowest active amount
Description: (§1) Instead, a miniaturized assay was developed. Molten TSA, kept below 42 °C, was inoculated with different test strains at an OD600 of 0.00125. Then, 17.5 ml was poured into Petri dishes, resulting in agar layers of ~3.16 mm thickness. After solidification, a cork borer was used to punch wells of 4-mm diameter into the agar. Thirty-five microlitres of purified epifadin in DMSO–PA (2.4 µg, 1.2 µg, 0.6 µg, 0.3 µg, 0.15 µg and 0.075 µg) was pipetted into the wells, and agar plates were incubated for 24 h at 37 °C in the dark. Diameters of the zones of inhibition were measured and the volume containing the inhibitory epifadin concentration was calculated, using the following formula for cylinder volume: Vc=πxr^2xhVc=cylindervolumeVi=πrz2xha−(πrw2xha)Vi=inhibitedvolumerz2=radius(diameter/2)zoneofinhibitionrw2=radius(diameter/2)ofwellha=heightofagar
(§2) The volume of agar showing inhibition of the test strain was then correlated with the included amount of epifadin, and the epifadin concentration necessary to inhibit test strain growth in a 1 ml volume was calculated to yield IC values. If, for example, 2.4 µg of epifadin lead to an inhibited volume of 480 µl, to inhibit a volume of 1 ml, 5 µg epifadin is needed, which corresponds to an IC of 5 μg ml^−1. These calculations were conducted for the lowest amount of epifadin that led to a zone of inhibition to minimize the necessary epifadin amounts and the calculation error due to the gradient within the inhibition zone. As a control, the same assay was used to determine the IC for vancomycin, daptomycin and lugdunin under these conditions.

[4] = system: S. aureus USA300 JE2; test: as above; format: cell-based, Staphylococcus aureus; conditions: agar diffusion on inoculated TSA, 24 h 37 °C dark; IC from inhibited agar volume
Description: as §1, §2

For `CC(=O)C1=C(O)[C@@H](CC(C)C)NC1=O` [mutanocyclin], the antimicrobial activity [1] is listed as “not antimicrobial”.
In the case of `CCCCCCC/C=C/C(=O)N1C(O)=C(C(C)=O)C(=O)[C@H]1CC(C)C` [reutericyclin A], the antimicrobial activity [1] is listed as “antimicrobial”.
For Lugdunin, the “stability (remaining antimicrobial activity, 0 h = 100%)” value ([2]; experiment 1 of 3, after 1 h incubation) was 83.34%, the “stability (remaining antimicrobial activity, 0 h = 100%)” value ([2]; experiment 1 of 3, after 2 h incubation) was 75.95% and the “stability (remaining antimicrobial activity, 0 h = 100%)” value ([2]; experiment 1 of 3, after 3 h incubation) was 68.18%. The “stability (remaining antimicrobial activity, 0 h = 100%)” value ([2]; experiment 1 of 3, after 4 h incubation) was 72.38%, the “stability (remaining antimicrobial activity, 0 h = 100%)” value ([2]; experiment 1 of 3, after 5 h incubation) was 65.52% and the “stability (remaining antimicrobial activity, 0 h = 100%)” value ([2]; experiment 1 of 3, after 6 h incubation) was 61.66%. The “stability (remaining antimicrobial activity, 0 h = 100%)” value ([2]; experiment 2 of 3, after 1 h incubation) was 81.19%, the “stability (remaining antimicrobial activity, 0 h = 100%)” value ([2]; experiment 2 of 3, after 2 h incubation) was 74.91% and the “stability (remaining antimicrobial activity, 0 h = 100%)” value ([2]; experiment 2 of 3, after 3 h incubation) was 69.51%. The “stability (remaining antimicrobial activity, 0 h = 100%)” value ([2]; experiment 2 of 3, after 4 h incubation) was 68.58%, the “stability (remaining antimicrobial activity, 0 h = 100%)” value ([2]; experiment 2 of 3, after 5 h incubation) was 65.27% and the “stability (remaining antimicrobial activity, 0 h = 100%)” value ([2]; experiment 2 of 3, after 6 h incubation) was 69.75%. For the same compound, the “stability (remaining antimicrobial activity, 0 h = 100%)” value ([2]; experiment 3 of 3, after 1 h incubation) was 81.54%, the “stability (remaining antimicrobial activity, 0 h = 100%)” value ([2]; experiment 3 of 3, after 2 h incubation) was 76.22% and the “stability (remaining antimicrobial activity, 0 h = 100%)” value ([2]; experiment 3 of 3, after 3 h incubation) was 72.30%. For the same compound, the “stability (remaining antimicrobial activity, 0 h = 100%)” value ([2]; experiment 3 of 3, after 4 h incubation) was 70.84%, the “stability (remaining antimicrobial activity, 0 h = 100%)” value ([2]; experiment 3 of 3, after 5 h incubation) was 67.83% and the “stability (remaining antimicrobial activity, 0 h = 100%)” value ([2]; experiment 3 of 3, after 6 h incubation) was 62.11%. For the same compound, the “IC*” value [3] was 7.3 µg/mL and the “IC*” value [4] was 8.5 µg/mL.
